target: T1, human cannabinoid CB1 receptor (Homo sapiens, UniProt P21554); assay: In-vitro determination of efficacy and potency at the human CB1 receptor expressed in CHO cells (AP1-luciferase reporter, antagonism of CP-55,940); assay type: cell-based
T1 construct: expressed in transfected cells; co-transfected with AP1-luciferase reporter
Experimental: In-Vitro Determination of Efficacy and Potency at the Human CB1 Receptor Expressed in CHO Cells
Chinese hamster ovary (CHO) cells, which stably express the human cannabinoid CB1 receptor were co-transfected with a luciferase reporter gene which is under the regulatory control of an AP1-response element (AP1 luc). The cells were suspended in commercially available DMEM/F12 nut mix without phenol red, containing penicillin/streptomycin (50 U/50 μg/ml) and fungizone (1 μg/ml) before being seeded into white walled, white bottomed 96 well plates at a density of 3×10^4 cells per well (100 μl final volume) and incubated overnight (approximately 18 hrs at 37° C., 5% CO2 in air) prior to assay.
10 μl of each dilution was added to the relevant wells in the cell plate to give a final concentration range of 10 μM to 0.1 nM.
Plates were incubated for 5 hours at 37° C. before addition of 100 μl LucLite reagent to each well (reconstituted as per manufacturer's instructions). Plates were sealed with Top Seal and counted on the Packard TopCount (single photon counting, 0.01 minute count time, no count delay).
Following stimulation of the CB1 receptor, luciferase expression is enhanced and this can be measured as an increase in enzyme activity. This reporter system is therefore used as a functional test to evaluate the potency of antagonist compounds at the CB1 receptor. Data was analysed using curve fitting and a minimum sum of squares method to produce pEC50 values.

T1 sequence (P21554 whole entry): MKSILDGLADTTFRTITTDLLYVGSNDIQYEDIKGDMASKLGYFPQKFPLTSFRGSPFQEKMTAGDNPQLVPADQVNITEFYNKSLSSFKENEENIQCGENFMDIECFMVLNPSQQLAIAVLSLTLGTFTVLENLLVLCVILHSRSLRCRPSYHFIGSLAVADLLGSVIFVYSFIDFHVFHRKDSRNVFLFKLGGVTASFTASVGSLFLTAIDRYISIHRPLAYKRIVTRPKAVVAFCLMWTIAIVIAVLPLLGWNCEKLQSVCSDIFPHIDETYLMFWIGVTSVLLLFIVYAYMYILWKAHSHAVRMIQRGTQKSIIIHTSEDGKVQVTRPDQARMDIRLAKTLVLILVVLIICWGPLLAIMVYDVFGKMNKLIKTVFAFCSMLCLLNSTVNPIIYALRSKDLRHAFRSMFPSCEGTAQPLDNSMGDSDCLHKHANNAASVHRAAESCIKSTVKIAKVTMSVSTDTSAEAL

First: N#Cc1ccc2c(c1)cc(C(=O)NC[C@H]1CCCC[C@@H]1O)n2Cc1cccc(OC(F)(F)F)c1 (relative stereo) [Example 34, trans-5-Cyano-1-(3-trifluoromethoxybenzyl)-1H-indole-2-carboxylic acid (2-hydroxy-cyclohexylmethyl)amide]
Second: N#Cc1ccc2c(c1)cc(C(=O)N[C@@H]1CCC[C@H]1O)n2Cc1cccc(OC(F)(F)F)c1 (relative stereo) [Example 54, trans-5-Cyano-1-(3-trifluoromethoxybenzyl)-1H-indole-2-carboxylic acid (2-hydroxy-cyclopentyl)amide]
The IC50 of the first is lower: less than 1 nM for the first, 1 to 10 nM for the second. The first is the more potent here.

Compared with `CN1CCN(c2cccc(Cn3c(C(=O)NC[C@H]4CCCC[C@@H]4O)cc4cc(C#N)ccc43)c2)CC1` (relative stereo) [Example 47, trans-5-Cyano-1-[3-(4-methyl-piperazin-1-yl)-benzyl]-1H-indole-2-carboxylic acid (2-hydroxy-cyclohexylmethyl)amide], `N#Cc1ccc2c(c1)cc(C(=O)NCC1(O)CCCCC1)n2Cc1cccc(OC(F)(F)F)c1` [Example 60, 5-Cyano-1-(3-trifluoromethoxybenzyl)-1H-indole-2-carboxylic acid (1-hydroxy-cyclohexylmethyl)amide] is lower in IC50: 10 to 100 nM for the first, 1 to 10 nM for the second.

Compared with `CC(C)OCCCNC(=O)c1cc2cc(Cl)ccc2n1Cc1cccc(OC(F)(F)F)c1` [Example 15, 5-Chloro-1-(3-trifluoromethoxybenzyl)-1H-indole-2-carboxylic acid (3-isopropoxypropyl)amide], `CC(O)(CCNC(=O)c1cc2cc(C#N)ccc2n1Cc1cccc(OC(F)(F)F)c1)C(F)(F)F` (stereo not shown) [Example 71, 5-Cyano-1-(3-trifluoromethoxybenzyl)-1H-indole-2-carboxylic acid (4,4,4-trifluoro-3-hydroxy-3-methylbutyl)amide] is lower in IC50: 10 to 100 nM for the first, 1 to 10 nM for the second. The second is the more potent here.

`COc1ccc(OC(F)(F)F)cc1Cn1c(C(=O)NCC(C)(C)CO)cc2cc(C#N)ccc21` [Example 22, 5-Cyano-1-(2-methoxy-5-trifluoromethoxybenzyl)-1H-indole-2-carboxylic acid (3-hydroxy-2,2-dimethylpropyl)amide] and `Cc1ccc(C(F)(F)F)cc1Cn1c(C(=O)NCCC(C)(C)O)cc2cc(C#N)ccc21` [Example 64, 5-Cyano-1-(2-methyl-5-trifluoromethylbenzyl)-1H-indole-2-carboxylic acid (3-hydroxy-3-methylbutyl)amide] fall in the same range of IC50: 1 to 10 nM for the first, 1 to 10 nM for the second.

First: N#Cc1ccc2c(c1)cc(C(=O)NCC1(O)CCCC1)n2Cc1cccc(OC(F)(F)F)c1 [Example 65, 5-Cyano-1-(3-trifluoromethoxybenzyl)-1H-indole-2-carboxylic acid (1-hydroxy-cyclopentylmethyl)amide]
Second: N#Cc1ccc2c(c1)cc(C(=O)NCC1(CO)CCCC1)n2Cc1cccc(OC(F)(F)F)c1 [Example 68, 5-Cyano-1-(3-trifluoromethoxybenzyl)-1H-indole-2-carboxylic acid (1-hydroxymethyicyclopentylmethyl)amide]
The IC50 of the first is higher: 1 to 10 nM for the first, less than 1 nM for the second.

Source: patent US7671080B2, “1-benzylindole-2-carboxamide derivatives” (N.V. Organon, priority 2005, dated 2010)
